# Experimental data as given in patent publication US7119182B1 (The Regents of the University of California, priority 1991, dated 2006).
# Square brackets hold non-standard residues; d marks the D form. Ends that are not written are not given here. Peptide text beside a SMILES is read from it. * marks the point of attachment. 2Nal = N[C@@H](Cc1ccc2ccccc2c1)C(=O)O; 2Thi = N[C@@H](Cc1cccs1)C(=O)O; Cha = N[C@@H](CC1CCCCC1)C(=O)O; Phg = N[C@H](C(=O)O)c1ccccc1; Aib = CC(C)(N)C(=O)O; X1 = O=C(c1ccccc1S)*; Mpa = O=C(O)CCS
# Molecular target: T1, washed human platelets (Homo sapiens, UniProt P25116)
# T1 sequence (P25116 42-425): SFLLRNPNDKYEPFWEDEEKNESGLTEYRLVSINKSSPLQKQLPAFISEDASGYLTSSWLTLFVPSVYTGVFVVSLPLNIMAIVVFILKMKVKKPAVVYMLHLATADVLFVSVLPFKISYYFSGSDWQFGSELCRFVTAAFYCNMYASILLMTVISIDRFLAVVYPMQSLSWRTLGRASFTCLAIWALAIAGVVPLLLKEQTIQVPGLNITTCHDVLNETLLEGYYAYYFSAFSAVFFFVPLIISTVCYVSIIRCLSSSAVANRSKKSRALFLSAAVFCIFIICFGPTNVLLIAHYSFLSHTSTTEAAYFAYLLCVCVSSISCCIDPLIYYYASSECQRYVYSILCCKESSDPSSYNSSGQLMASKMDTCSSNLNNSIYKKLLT
# Assay: not given
# Settings: read-out: EC50 (concentration required to elicit a 50% maximal aggregation); washed human platelets
row,Molecule,EC50 [µM]
1,CC(C)C[C@H](NC(=O)[C@H](CC(C)C)NC(=O)[C@H](Cc1cccs1)NC(=O)[C@@H](N)CO)C(=O)N[C@@H](CCCNC(=N)N)C(N)=O [S(Thi)LLR-NH2] (H-S[2Thi]LLR-NH2),7.6
2,CC(C)C[C@H](NC(=O)[C@H](CC1CCCCC1)NC(=O)[C@H](Cc1ccccc1)NC(=O)[C@@H](N)CO)C(=O)N[C@@H](CCCNC(=N)N)C(N)=O [SF(Cha)LR-NH2] (H-SF[Cha]LR-NH2),1.5
3,CC(C)C[C@H](NC(=O)[C@H](CC(C)C)N(C)C(=O)[C@H](Cc1ccccc1)NC(=O)[C@@H](N)CO)C(=O)N[C@@H](CCCN=C(N)N)C(N)=O [SF(N-MeLeu)LR-NH2],> 1000
4,CC(C)C[C@H](NC(=O)[C@H](Cc1ccccc1)NC(=O)[C@@H](N)CO)C(=O)N[C@@H](Cc1ccc2ccccc2c1)C(=O)N[C@@H](CCCNC(=N)N)C(=O)N[C@@H](CC(N)=O)C(N)=O [SFL(Nal)RN-NH2] (H-SFL[2Nal]RN-NH2),7.5
5,CC(C)C[C@H](NC(=O)[C@H](CC(C)C)NC(=O)[C@H](Cc1ccccc1)NC(=O)[C@@H](N)CO)C(N)=O [SFLL-NH2] (H-SFLL-NH2),146
6,CC(C)C[C@H](NC(=O)[C@H](CC(C)C)NC(=O)[C@H](Cc1ccccc1)NC(=O)[C@@H](N)CO)C(=O)N[C@@H](CCCN=C(N)N)C(N)=O [SFLLR-NH2],7.5
7,SFFLRN-NH2 [SFFLRN-NH2],1.5
8,SFLAR-NH2 [SFLAR-NH2],146
9,SFLLRNPN,7.6

# Same assay, conditions: washed human platelets
row,Molecule,EC50 (concentration required to elicit a 50% maximal aggregation)
1,DFLLR [DFLLR-NH2],Inactive
2,FFLLR [FFLLR-NH2],Inactive
3,FLLRNPNDKYEPF,Inactive
4,KFLLR [KFLLR-NH2],Inactive
5,SF(Aib)LRN-NH2 (SF[Aib]LRN-NH2; N-terminus assumed; SMILES CC(C)C[C@H](NC(=O)C(C)(C)NC(=O)[C@H](Cc1ccccc1)NC(=O)[C@@H](N)CO)C(=O)N[C@@H](CCCNC(=N)N)C(=O)N[C@@H](CC(N)=O)C(N)=O),Inactive

# Continued, values first:
row,EC50 (concentration required to elicit a 50% maximal aggregation),Molecule
1,Inactive,S(Phg)LLR-NH2 (S[Phg]LLR-NH2; N-terminus assumed; SMILES CC(C)C[C@H](NC(=O)[C@H](CC(C)C)NC(=O)[C@@H](NC(=O)[C@@H](N)CO)c1ccccc1)C(=O)N[C@@H](CCCNC(=N)N)C(N)=O)
2,Inactive,SALLRNPNDKYE
3,Inactive,SF(D-Ala)LR-NH2 (SF[dA]LR-NH2; N-terminus assumed; SMILES CC(C)C[C@H](NC(=O)[C@@H](C)NC(=O)[C@H](Cc1ccccc1)NC(=O)[C@@H](N)CO)C(=O)N[C@@H](CCCNC(=N)N)C(N)=O)
4,Inactive,SF(b-Ala)LRN-NH2 (SFXLRN; beta-Ala at position 3; C-terminal amide)
5,Inactive,SFDLR [SFDLR-NH2]
6,Inactive,SFLARNPNDKYE
7,Inactive,SFLER [SFLER-NH2]
8,Inactive,SFLLDN [SFLLDN-NH2]
9,Inactive,SFLLRNPNDYKE
10,Inactive,SFLPR [SFLPR-NH2]
11,Inactive,SLLLR [SLLLR-NH2]

# Molecular target: T2, thrombin receptor (Homo sapiens, UniProt P25116)
# T2 construct: In this assay, washed human platelets are prepared by the method of Baenzinger; endogenous in cells; host or cells: washed human platelets
# T2 sequence (P25116 22-425): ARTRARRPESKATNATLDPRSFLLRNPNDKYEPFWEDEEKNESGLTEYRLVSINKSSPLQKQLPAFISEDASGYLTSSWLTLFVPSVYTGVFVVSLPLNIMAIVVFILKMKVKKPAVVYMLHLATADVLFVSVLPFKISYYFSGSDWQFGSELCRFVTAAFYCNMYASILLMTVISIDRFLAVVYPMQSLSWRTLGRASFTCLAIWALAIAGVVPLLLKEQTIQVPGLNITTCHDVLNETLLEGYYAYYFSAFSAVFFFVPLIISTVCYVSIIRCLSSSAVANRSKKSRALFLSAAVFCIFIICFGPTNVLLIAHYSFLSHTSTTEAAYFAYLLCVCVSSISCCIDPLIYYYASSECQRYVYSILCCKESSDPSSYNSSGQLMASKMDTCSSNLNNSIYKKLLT
# Assay: Platelet activation/aggregation assays in the presence of thrombin, antagonist peptides
# Assay type: cell-based
# Settings: read-out: IC50 (50% inhibition of activation or aggregation)
# Procedure: Platelet Aggregation: In this assay, washed human platelets are prepared by the method of Baenzinger, M. G., Meth Enzymol (1974) 31:149–155, or as described by Charo, I. F., et al., J Clin Invest (1977) 63:866–873.
# Washed platelets are suspended in modified Tyrode's buffer, pH 7.4 with 2 mM magnesium and 1 mM calcium at a concentration of 10^8 platelets/ml.
# About 20 μl Chromolume® reagent (Chronolog Corporation, Havertown, Pa.) is added. In addition to measuring aggregation, ATP secretion is assessed. […] Platelet ATP secretion is measured in a lumiaggregometer as luminescence signal. […] Preincubation is not necessary for testing agonists or antagonists which interact directly with the receptor.
# Platelet Aggregation Assay Using Microtiter Plates: Thrombin- or agonist-mediated platelet aggregation as measured with washed platelets in 96-well microtiter plates was performed as described (Fratantoni, J. C. et al., Am J Clin Pathol (1990) 94:613–617).
row,Molecule,IC50 [µM]
1,CC(C)C[C@H](NC(=O)[C@H](Cc1ccccc1)NC(=O)CCS)C(=O)N[C@@H](CC(C)C)C(=O)N[C@@H](CCCNC(=N)N)C(=O)N[C@@H](CC(N)=O)C(=O)N1CCC[C@H]1C(=O)N[C@@H](CC(N)=O)C(=O)N[C@@H](CC(=O)O)C(=O)N[C@@H](CCCCN)C(=O)O ([Mpa]FLLRNPNDK-OH),80
2,N=C(N)NCCC[C@H](NC(=O)[C@H](CC1CCCCC1)NC(=O)[C@H](CC1CCCCC1)NC(=O)[C@H](Cc1ccccc1)NC(=O)c1ccccc1S)C(=O)N[C@@H](CCCCN)C(=O)N1CCC[C@H]1C(=O)N[C@@H](CC(N)=O)C(=O)N[C@@H](CC(=O)O)C(=O)N[C@@H](CCCCN)C(N)=O [(2-Mba)-F(Cha)(Cha)RKPNDK-NH2] (X1-F[Cha][Cha]RKPNDK-NH2),50
3,CSCCC(=O)N[C@@H](Cc1ccccc1)C(=O)N[C@@H](CC1CCCCC1)C(=O)N[C@@H](CC1CCCCC1)C(=O)N[C@@H](CCCNC(=N)N)C(=O)N[C@@H](CCCCN)C(=O)N1CCC[C@H]1C(=O)N[C@@H](CC(N)=O)C(=O)N[C@@H](CC(=O)O)C(=O)N[C@@H](CCCCN)C(N)=O [(SMeMpr)-F(Cha)(Cha)RKPNDK-NH2] ([Mpa](Me)F[Cha][Cha]RKPNDK-NH2),10

# Now from value to molecule:
row,IC50 [µM],Molecule
1,80,N=C(N)NCCC[C@H](NC(=O)[C@H](CC1CCCCC1)NC(=O)[C@H](CC1CCCCC1)NC(=O)[C@H](Cc1ccccc1)NC(=O)CCS)C(=O)N[C@@H](CC(N)=O)C(=O)N1CCC[C@H]1C(=O)N[C@@H](CC(N)=O)C(=O)N[C@@H](CC(=O)O)C(=O)N[C@@H](CCCCN)C(=O)N[C@@H](Cc1ccc(O)cc1)C(=O)N[C@@H](CCC(=O)O)C(N)=O ([Mpa]F[Cha][Cha]RNPNDKYE-NH2)
2,40,C[C@H](NC(=O)[C@H](CCCNC(=N)N)NC(=O)[C@H](CC1CCCCC1)NC(=O)[C@H](CC1CCCCC1)NC(=O)[C@H](Cc1ccccc1)NC(=O)CCS)C(=O)N1CCC[C@H]1C(=O)N[C@@H](CC(N)=O)C(=O)N[C@@H](CC(=O)O)C(=O)N[C@@H](CCCCN)C(N)=O [Mpr-F(Cha) (Cha)RAPNDK-NH2] ([Mpa]F[Cha][Cha]RAPNDK-NH2)
3,> 100,N=C(N)NCCC[C@H](NC(=O)[C@H](CC1CCCCC1)NC(=O)[C@H](CC1CCCCC1)NC(=O)[C@H](Cc1ccccc1)NC(=O)CCS)C(=O)N[C@@H](Cc1ccccc1)C(=O)N1CCC[C@H]1C(=O)N[C@@H](CC(N)=O)C(=O)N[C@@H](CC(=O)O)C(=O)N[C@@H](CCCCN)C(N)=O [Mpr-F(Cha) (Cha)RFPNDK-NH2] ([Mpa]F[Cha][Cha]RFPNDK-NH2)
4,50,C[C@H](NC(=O)[C@H](CC(=O)O)NC(=O)[C@H](CC(N)=O)NC(=O)[C@@H]1CCCN1C(=O)[C@H](CCCCN)NC(=O)[C@H](CCCNC(=N)N)NC(=O)[C@H](CC1CCCCC1)NC(=O)[C@H](CC1CCCCC1)NC(=O)[C@H](Cc1ccccc1)NC(=O)CCS)C(N)=O [Mpr-F(Cha) (Cha)RKPNDA-NH2] ([Mpa]F[Cha][Cha]RKPNDA-NH2)
5,75,C[C@H](NC(=O)[C@H](CC(N)=O)NC(=O)[C@H](CCCNC(=N)N)NC(=O)[C@H](CC1CCCCC1)NC(=O)[C@H](CC1CCCCC1)NC(=O)[C@H](Cc1ccccc1)NC(=O)CCS)C(=O)N[C@@H](CC(N)=O)C(=O)N[C@@H](CC(=O)O)C(=O)N[C@@H](CCCCN)C(N)=O [Mpr-F(Cha) (Cha)RNANDK-NH2] ([Mpa]F[Cha][Cha]RNANDK-NH2)
6,75,C[C@H](NC(=O)[C@@H]1CCCN1C(=O)[C@H](CC(N)=O)NC(=O)[C@H](CCCNC(=N)N)NC(=O)[C@H](CC1CCCCC1)NC(=O)[C@H](CC1CCCCC1)NC(=O)[C@H](Cc1ccccc1)NC(=O)CCS)C(=O)N[C@@H](CC(=O)O)C(=O)N[C@@H](CCCCN)C(N)=O [Mpr-F(Cha) (Cha)RNPADK-NH2] ([Mpa]F[Cha][Cha]RNPADK-NH2)
